Measured values published in ChEMBL document CHEMBL1201862, “PubChem BioAssay data set” (2004).
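Tested at 5 concentrations; 48 h exposure; 96-well plates; endpoints linearly interpolated, else capped at highest concentration. Here, GI50 denotes the concentration required for 50% inhibition of growth.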 Active and inactive are the calls of the source. No stated cut-off is given here; in the data, active = GI50 up to about 1.1 µM and inactive = higher.

Key:
Test in all cases: NCI anticancer screen, dose series, 48 h
EKVX = system: EKVX
SK-MEL-2 = system: SK-MEL-2
TK-10 = system: TK-10
SK-MEL-28 = system: SK-MEL-28
MOLT-4 = system: MOLT-4
T47D = system: T47D
U-251 = system: U-251
M14 = system: M14
HOP-92 = system: HOP-92
A498 = system: A498
SK-MEL-5 = system: SK-MEL-5
PC-3 = system: PC-3
HT-29 = system: HT-29
UACC-257 = system: UACC-257
NCI-H522 = system: NCI-H522
K562 = system: K562
CCRF-CEM = system: CCRF-CEM
MDA-MB-231 = system: MDA-MB-231
RXF 393 = system: RXF 393
SW-620 = system: SW-620
SF-268 = system: SF-268
NCI-H23 = system: NCI-H23
MDA-MB-435 = system: MDA-MB-435
A549 = system: A549
OVCAR-8 = system: OVCAR-8
NCI/ADR-RES = system: NCI/ADR-RES
HOP-62 = system: HOP-62
BT-549 = system: BT-549
MDA-N = system: MDA-N
OVCAR-5 = system: OVCAR-5
SNB-19 = system: SNB-19
SF-539 = system: SF-539
RPMI-8226 = system: RPMI-8226
DU-145 = system: DU-145
MCF7 = system: MCF7
SN12C = system: SN12C
NCI-H460 = system: NCI-H460
HL-60 = system: HL-60
KM12 = system: KM12
OVCAR-3 = system: OVCAR-3
SK-OV-3 = system: SK-OV-3
Hs-578T = system: Hs-578T
CAKI-1 = system: CAKI-1
LOX IMVI = system: LOX IMVI
786-0 = system: 786-0
Malme-3M = system: Malme-3M
UACC-62 = system: UACC-62
HCT-15 = system: HCT-15
SF-295 = system: SF-295
IGROV-1 = system: IGROV-1
ACHN = system: ACHN
HCC 2998 = system: HCC 2998
COLO 205 = system: COLO 205
OVCAR-4 = system: OVCAR-4
NCI-H226 = system: NCI-H226
HCT-116 = system: HCT-116
SR = system: SR
UO-31 = system: UO-31
SNB-75 = system: SNB-75

CCOP(=O)(OCC)C(Cc1ccc(Cl)cc1)NS(=O)(=O)c1ccc(C)cc1 (stereo unspecified)
GI50 (EKVX): > 100 µM (inactive)
GI50 (SK-MEL-2): > 100 µM (inactive)
GI50 (TK-10): > 100 µM (inactive)
GI50 (SK-MEL-28): > 100 µM (inactive)
GI50 (MOLT-4): > 100 µM (inactive)
GI50 (T47D): > 100 µM (inactive)
GI50 (U-251): > 100 µM (inactive)
GI50 (M14): > 100 µM (inactive)
GI50 (HOP-92): > 100 µM (inactive)
GI50 (A498): > 100 µM (inactive)
GI50 (SK-MEL-5): > 100 µM (inactive)
GI50 (PC-3): > 100 µM (inactive)
GI50 (HT-29): > 100 µM (inactive)
GI50 (UACC-257): 35.5 µM (inactive)
GI50 (NCI-H522): 67.9 µM (inactive)
GI50 (K562): > 100 µM (inactive)
GI50 (CCRF-CEM): > 100 µM (inactive)
GI50 (MDA-MB-231): > 100 µM (inactive)
GI50 (RXF 393): > 100 µM (inactive)
GI50 (SW-620): > 100 µM (inactive)
GI50 (SF-268): > 100 µM (inactive)
GI50 (NCI-H23): > 100 µM (inactive)
GI50 (MDA-MB-435): > 100 µM (inactive)
GI50 (A549): > 100 µM (inactive)
GI50 (OVCAR-8): > 100 µM (inactive)
GI50 (NCI/ADR-RES): > 100 µM (inactive)
GI50 (HOP-62): > 100 µM (inactive)
GI50 (BT-549): > 100 µM (inactive)
GI50 (MDA-N): > 100 µM (inactive)
GI50 (OVCAR-5): > 100 µM (inactive)
GI50 (SNB-19): > 100 µM (inactive)
GI50 (SF-539): > 100 µM (inactive)
GI50 (RPMI-8226): 98.9 µM (inactive)
GI50 (DU-145): > 100 µM (inactive)
GI50 (MCF7): > 100 µM (inactive)
GI50 (SN12C): 67.6 µM (inactive)
GI50 (NCI-H460): > 100 µM (inactive)
GI50 (HL-60): > 100 µM (inactive)
GI50 (KM12): > 100 µM (inactive)
GI50 (OVCAR-3): > 100 µM (inactive)
GI50 (SK-OV-3): > 100 µM (inactive)
GI50 (Hs-578T): > 100 µM (inactive)
GI50 (CAKI-1): > 100 µM (inactive)
GI50 (LOX IMVI): > 100 µM (inactive)
GI50 (786-0): > 100 µM (inactive)
GI50 (Malme-3M): > 100 µM (inactive)
GI50 (UACC-62): > 100 µM (inactive)
GI50 (HCT-15): > 100 µM
GI50 (SF-295): > 100 µM (inactive)
GI50 (IGROV-1): > 100 µM (inactive)
GI50 (ACHN): > 100 µM (inactive)
GI50 (HCC 2998): > 100 µM (inactive)
GI50 (COLO 205): > 100 µM (inactive)
GI50 (OVCAR-4): > 100 µM (inactive)

COc1ccc(-c2cc(-c3ccc(O)cc3O)c(C#N)c(=O)[nH]2)cc1
GI50 (NCI-H226): 20.6 µM (inactive)
GI50 (EKVX): 15.2 µM (inactive)
GI50 (TK-10): 26.5 µM (inactive)
GI50 (SK-MEL-28): 15.1 µM (inactive)
GI50 (MOLT-4): 18.6 µM (inactive)
GI50 (T47D): 93.3 µM (inactive)
GI50 (U-251): 18.7 µM (inactive)
GI50 (M14): 16 µM (inactive)
GI50 (HOP-92): 12.6 µM (inactive)
GI50 (SK-MEL-5): 15.5 µM (inactive)
GI50 (PC-3): 14.4 µM (inactive)
GI50 (HT-29): 18.1 µM (inactive)
GI50 (UACC-257): 19.5 µM (inactive)
GI50 (HCT-116): 19.1 µM (inactive)
GI50 (SR): 16.7 µM (inactive)
GI50 (K562): 25.2 µM (inactive)
GI50 (CCRF-CEM): 23.9 µM (inactive)
GI50 (MDA-MB-231): 17.3 µM (inactive)
GI50 (RXF 393): 15.9 µM (inactive)
GI50 (SW-620): 21.3 µM (inactive)
GI50 (UO-31): 34.4 µM (inactive)
GI50 (SF-268): 24.3 µM (inactive)
GI50 (NCI-H23): 26.2 µM (inactive)
GI50 (MDA-MB-435): 13.8 µM (inactive)
GI50 (A549): 23.4 µM (inactive)
GI50 (OVCAR-8): 31.9 µM (inactive)
GI50 (NCI/ADR-RES): 19.6 µM (inactive)
GI50 (HOP-62): 17.9 µM (inactive)
GI50 (BT-549): 23.6 µM (inactive)
GI50 (MDA-N): 11.6 µM (inactive)
GI50 (OVCAR-5): 18.6 µM (inactive)
GI50 (SNB-19): 21.9 µM (inactive)
GI50 (SF-539): 17.6 µM (inactive)
GI50 (RPMI-8226): 15.7 µM (inactive)
GI50 (DU-145): 40.6 µM (inactive)
GI50 (MCF7): 27 µM (inactive)
GI50 (SN12C): 18.8 µM (inactive)
GI50 (NCI-H460): 23.1 µM (inactive)
GI50 (HL-60): 29.7 µM (inactive)
GI50 (KM12): 22.6 µM (inactive)
GI50 (OVCAR-3): 20.5 µM (inactive)
GI50 (SK-OV-3): 16.1 µM (inactive)
GI50 (Hs-578T): 18.5 µM (inactive)
GI50 (CAKI-1): 23.8 µM (inactive)
GI50 (LOX IMVI): 16.6 µM (inactive)
GI50 (786-0): 18.5 µM (inactive)
GI50 (Malme-3M): 23.1 µM (inactive)
GI50 (UACC-62): 15.8 µM (inactive)
GI50 (HCT-15): 31.9 µM
GI50 (SF-295): 15.7 µM (inactive)
GI50 (ACHN): 43.2 µM (inactive)
GI50 (COLO 205): 16.6 µM (inactive)
GI50 (OVCAR-4): 20.1 µM (inactive)

Cc1ccsc1/C=N/Nc1cc(C)c2ccccc2n1
GI50 (NCI-H226): 16 µM (inactive)
GI50 (EKVX): 6.82 µM (inactive)
GI50 (SK-MEL-2): 17.9 µM (inactive)
GI50 (TK-10): 14.7 µM (inactive)
GI50 (SK-MEL-28): 14.6 µM (inactive)
GI50 (MOLT-4): 9.23 µM (inactive)
GI50 (T47D): 17.8 µM (inactive)
GI50 (U-251): 14 µM (inactive)
GI50 (M14): 8.63 µM (inactive)
GI50 (HOP-92): 13.7 µM (inactive)
GI50 (SNB-75): 13.8 µM (inactive)
GI50 (A498): 10.4 µM (inactive)
GI50 (SK-MEL-5): 2.17 µM (inactive)
GI50 (PC-3): 14.7 µM (inactive)
GI50 (HT-29): 3.61 µM (inactive)
GI50 (UACC-257): 6.78 µM (inactive)
GI50 (HCT-116): 12.1 µM (inactive)
GI50 (K562): 9.06 µM (inactive)
GI50 (CCRF-CEM): 17.1 µM (inactive)
GI50 (MDA-MB-231): 0.637 µM (active)
GI50 (RXF 393): 20.7 µM (inactive)
GI50 (SW-620): 17.2 µM (inactive)
GI50 (UO-31): 10.4 µM (inactive)
GI50 (SF-268): 17.6 µM (inactive)
GI50 (NCI-H23): 11.2 µM (inactive)
GI50 (MDA-MB-435): 14 µM (inactive)
GI50 (A549): 9.55 µM (inactive)
GI50 (OVCAR-8): 14.7 µM (inactive)
GI50 (NCI/ADR-RES): 13.9 µM (inactive)
GI50 (HOP-62): 22.3 µM (inactive)
GI50 (BT-549): 21 µM (inactive)
GI50 (MDA-N): 14.5 µM (inactive)
GI50 (OVCAR-5): 24.3 µM (inactive)
GI50 (SNB-19): 16.6 µM (inactive)
GI50 (RPMI-8226): 3.28 µM (inactive)
GI50 (DU-145): 12.6 µM (inactive)
GI50 (MCF7): 15.6 µM (inactive)
GI50 (SN12C): 15.2 µM (inactive)
GI50 (HL-60): 12.2 µM (inactive)
GI50 (KM12): 15.6 µM (inactive)
GI50 (OVCAR-3): 3.94 µM (inactive)
GI50 (SK-OV-3): 17.3 µM (inactive)
GI50 (Hs-578T): 16.7 µM (inactive)
GI50 (CAKI-1): 16.6 µM (inactive)
GI50 (LOX IMVI): 12 µM (inactive)
GI50 (786-0): 16.3 µM (inactive)
GI50 (UACC-62): 12.5 µM (inactive)
GI50 (HCT-15): 11.4 µM
GI50 (SF-295): 3.04 µM (inactive)
GI50 (IGROV-1): 1.36 µM (inactive)
GI50 (ACHN): 12.9 µM (inactive)
GI50 (HCC 2998): 14 µM (inactive)
GI50 (COLO 205): 5.92 µM (inactive)
GI50 (OVCAR-4): 14.6 µM (inactive)
